Our source for the pest or weed control values is US8754242B2, “Herbicides” (Syngenta Crop Protection LLC, priority 2007, dated 2014).

Holding throughout (assay type): in vivo
In experiment [1] the test system is Setaria faberi (SETFA). Description: Test Example 1 post-emergence herbicidal activity. The conditions noted are these: 360 h, rate 125 g/ha, evaluated 15 days later, read-out: Post-emergence activity SETFA (100=total damage to plant; 0=no damage to plant). Put shortly: (§1)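 Greenhouse pot test; spray application pre-emergence (1 d after sowing) or post-emergence (10 d growth). Rating 0–100% damage; pre read at 20 d, post at 15 d.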

Experiment [2] relates to Echinochloa crus-galli (ECHCG). Description: Test Example 1 post-emergence herbicidal activity. The note with it: 360 h, rate 125 g/ha, evaluated 15 days later, read-out: Post-emergence activity ECHCG (100=total damage to plant; 0=no damage to plant). The procedure, abridged:
as §1

For experiment [3], the system named is Alopecurus myosuroides (ALOMY). The experiment in a line: Test Example 1 post-emergence herbicidal activity. The conditions noted are these: 360 h, rate 125 g/ha, evaluated 15 days later, read-out: Post-emergence activity ALOMY (100=total damage to plant; 0=no damage to plant). The procedure, abridged:
as §1

The test system of experiment [4] is Avena fatua (AVEFA). The experiment in a line: Test Example 1 post-emergence herbicidal activity. The note with it: 360 h, rate 125 g/ha, evaluated 15 days later, read-out: Post-emergence activity AVEFA (100=total damage to plant; 0=no damage to plant). The procedure, abridged: as §1
The test system of experiment [5] is Lolium perenne (LOLPE). The experiment in a line: Test Example 1 post-emergence herbicidal activity. The note with it: 360 h, rate 125 g/ha, evaluated 15 days later, read-out: Post-emergence activity LOLPE (100=total damage to plant; 0=no damage to plant). The procedure, abridged:
as §1

The subject of experiment [6] is Digitaria sanguinalis (DIGSA). The experiment in a line: Test Example 1 post-emergence herbicidal activity. The note with it: 360 h, rate 125 g/ha, evaluated 15 days later, read-out: Post-emergence activity DIGSA (100=total damage to plant; 0=no damage to plant). The procedure, abridged:
as §1

Experiment [7] has as its system Setaria faberi (SETFA). The experiment in a line: Test Example 1 pre-emergence herbicidal activity. The conditions noted are these: Setaria faberi, 480 h, rate 250 g/ha, evaluated 20 days later, read-out: Pre-emergence activity SETFA (100=total damage to plant; 0=no damage to plant). Put shortly:
as §1

The test system of experiment [8] is Echinochloa crus-galli (ECHCG). Description: Test Example 1 pre-emergence herbicidal activity. The note with it: Echinochloa crus-galli, 480 h, rate 250 g/ha, evaluated 20 days later, read-out: Pre-emergence activity ECHCG (100=total damage to plant; 0=no damage to plant). Put shortly: as §1
For experiment [9], the system named is Alopecurus myosuroides (ALOMY). The experiment in a line: Test Example 1 pre-emergence herbicidal activity. The note with it: Alopecurus myosuroides, 480 h, rate 250 g/ha, evaluated 20 days later, read-out: Pre-emergence activity ALOMY (100=total damage to plant; 0=no damage to plant). Put shortly: as §1
For experiment [10], the system named is Avena fatua (AVEFA). Description: Test Example 1 pre-emergence herbicidal activity. The note with it: Avena fatua, 480 h, rate 250 g/ha, evaluated 20 days later, read-out: Pre-emergence activity AVEFA (100=total damage to plant; 0=no damage to plant). Put shortly: as §1
Experiment [11] relates to Lolium perenne (LOLPE). The experiment in a line: Test Example 1 pre-emergence herbicidal activity. The note with it: Lolium perenne, 480 h, rate 250 g/ha, evaluated 20 days later, read-out: Pre-emergence activity LOLPE (100=total damage to plant; 0=no damage to plant). Put shortly:
as §1

For experiment [12], the system named is Digitaria sanguinalis (DIGSA). Description: Test Example 1 pre-emergence herbicidal activity. The note with it: Digitaria sanguinalis, 480 h, rate 250 g/ha, evaluated 20 days later, read-out: Pre-emergence activity DIGSA (100=total damage to plant; 0=no damage to plant). Put shortly: as §1

On to `CCCCC[C@]12C=C[C@H](O1)[C@@H]1C(=O)C(c3c(C)cc(C)cc3C)=C(O)[C@@H]12` (racemic) [Example T42], for which the pest or weed control at 125 g/ha in the experiment on Setaria faberi (SETFA) [1] stood at 0%; in experiment [2], 60%; in [3], 0%; with Avena fatua (AVEFA) [4], 0%; with Lolium perenne (LOLPE) [5], 10%; in experiment [6], 20%. Besides, the pest or weed control at 250 g/ha with Setaria faberi (SETFA) [7] is 0%; in experiment [8] it was 30%; in experiment [9] it was 0%; in the experiment on Avena fatua (AVEFA) [10], 10%; in the experiment with Lolium perenne (LOLPE) [11] it was 0%; in experiment [12] it was 0%.

Consider `Cc1cc(C)c(C2=C(O)[C@H]3[C@@H](C2=O)[C@@H]2C=C[C@@]3(CSC(C)C)O2)c(C)c1` (racemic) [Example T43], for which the pest or weed control at 125 g/ha in the experiment with Setaria faberi (SETFA) [1] stood at 40%; in experiment [2] it was 60%; in experiment [3], 10%; with Avena fatua (AVEFA) [4], 0%; with Lolium perenne (LOLPE) [5], 0%; in experiment [6], 20%. Moreover, the pest or weed control at 250 g/ha in the experiment with Setaria faberi (SETFA) [7] turned out to be 50%; in experiment [8], 0%; in [9], 10%; with Avena fatua (AVEFA) [10], 20%; with Lolium perenne (LOLPE) [11], 0%; in experiment [12], 20%.

With `CC1=C[C@@H]2O[C@H]1[C@H]1C(O)=C(c3c(C)cc(C)cc3C)C(=O)[C@H]12` (racemic) [Example T44], the pest or weed control at 125 g/ha in the experiment with Setaria faberi (SETFA) [1] came out at 80%; in [2], 90%; in [3] it was 80%; in the experiment on Avena fatua (AVEFA) [4], 50%; in the experiment on Lolium perenne (LOLPE) [5], 20%; in [6], 80%. Moreover, the pest or weed control at 250 g/ha with Setaria faberi (SETFA) [7] was 80%; in experiment [8], 70%; in experiment [9] it was 80%; with Avena fatua (AVEFA) [10] it was 40%; in the experiment on Lolium perenne (LOLPE) [11] it was 70%; in experiment [12], 80%.

As for `COc1ccc([C@@H]2C[C@@H]3O[C@H]2[C@H]2C(O)=C(c4c(C)cc(C)cc4C)C(=O)[C@H]23)cc1` (racemic) [Example T57], the pest or weed control at 125 g/ha in the experiment with Setaria faberi (SETFA) [1] turned out to be 70%; in [2], 80%; in experiment [3], 70%; in the experiment with Avena fatua (AVEFA) [4], 70%; in the experiment with Lolium perenne (LOLPE) [5], 40%; in [6], 70%. Also, the pest or weed control at 250 g/ha in the experiment with Setaria faberi (SETFA) [7] was 80%; in experiment [8], 70%; in [9], 50%; with Avena fatua (AVEFA) [10] it was 30%; in the experiment with Lolium perenne (LOLPE) [11] it was 100%; in experiment [12], 60%.

Consider `CSC1=C[C@@H]2O[C@@]1(C)[C@@H]1C(O)=C(c3c(C)cc(C)cc3C)C(=O)[C@H]21` (racemic) [Example T64], for which the pest or weed control at 125 g/ha in the experiment on Setaria faberi (SETFA) [1] is 30%; in experiment [2], 50%; in experiment [3], 10%; with Avena fatua (AVEFA) [4], 0%; in the experiment on Lolium perenne (LOLPE) [5], 0%; in [6] it was 60%. Also, the pest or weed control at 250 g/ha in the experiment on Setaria faberi (SETFA) [7] amounted to 20%; in [8], 50%; in [9] it was 0%; in the experiment with Avena fatua (AVEFA) [10] it was 0%; in the experiment on Lolium perenne (LOLPE) [11], 10%; in [12], 10%.

With `Cc1cc(C)c(C2=C(O)[C@@H]3[C@@H]4O[C@@H](C[C@H]4c4ccc(F)cc4)[C@@H]3C2=O)c(C)c1` (racemic) [Example T70], the pest or weed control at 125 g/ha with Setaria faberi (SETFA) [1] was found to be 70%; in experiment [2], 80%; in experiment [3], 90%; with Avena fatua (AVEFA) [4], 70%; with Lolium perenne (LOLPE) [5], 70%; in experiment [6], 70%. For the same molecule, the pest or weed control at 250 g/ha with Setaria faberi (SETFA) [7] was 90%; in experiment [8] it was 100%; in experiment [9], 80%; with Avena fatua (AVEFA) [10] it was 50%; with Lolium perenne (LOLPE) [11], 100%; in [12] it was 90%.

As to `Cc1ccc([C@@H]2C[C@@H]3O[C@H]2[C@H]2C(O)=C(c4c(C)cc(C)cc4C)C(=O)[C@H]23)cc1` (racemic) [Example T71], the pest or weed control at 125 g/ha was 50% with Setaria faberi (SETFA) [1]; 60% in [2]; 50% in experiment [3]; 10% in the experiment on Avena fatua (AVEFA) [4]; 20% with Lolium perenne (LOLPE) [5]; 70% in [6]. The pest or weed control at 250 g/ha with Setaria faberi (SETFA) [7] came out at 20%; in experiment [8], 50%; in experiment [9], 30%; in the experiment with Avena fatua (AVEFA) [10], 0%; in the experiment on Lolium perenne (LOLPE) [11], 0%; in [12], 50%.

For `C=C[C@@H]1C[C@@H]2O[C@H]1[C@H]1C(O)=C(c3c(C)cc(C)cc3C)C(=O)[C@H]12` (racemic) [Example T99], the pest or weed control at 125 g/ha in the experiment with Setaria faberi (SETFA) [1] stood at 70%; in experiment [2], 100%; in experiment [3], 80%; with Avena fatua (AVEFA) [4], 30%; in the experiment on Lolium perenne (LOLPE) [5] it was 10%; in [6] it was 60%. Besides, the pest or weed control at 250 g/ha stood at 80% with Setaria faberi (SETFA) [7]; 100% in experiment [8]; 80% in [9]; 60% with Avena fatua (AVEFA) [10]; 100% with Lolium perenne (LOLPE) [11]; 80% in experiment [12].

For `Cc1cc(C)c(C2=C(O)[C@@H]3[C@@H]4O[C@@H](C[C@H]4c4ccc(C(F)(F)F)nc4)[C@@H]3C2=O)c(C)c1` (racemic) [Example T128], the pest or weed control at 125 g/ha with Setaria faberi (SETFA) [1] was determined as 100%; in experiment [2] it was 100%; in experiment [3], 80%; in the experiment on Avena fatua (AVEFA) [4], 90%; in the experiment with Lolium perenne (LOLPE) [5], 80%; in experiment [6] it was 100%. For the same molecule, the pest or weed control at 250 g/ha is 100% with Setaria faberi (SETFA) [7]; 100% in experiment [8]; 70% in experiment [9]; 70% in the experiment on Avena fatua (AVEFA) [10]; 90% in the experiment on Lolium perenne (LOLPE) [11]; 100% in experiment [12].

Take `CCc1cc(C)cc(CC)c1C1=C(O)[C@@H]2[C@@H]3O[C@@H](C[C@H]3c3ccc(OC(F)(F)F)cc3)[C@@H]2C1=O` (racemic) [Example T159]: the pest or weed control at 125 g/ha came out at 100% in the experiment with Setaria faberi (SETFA) [1]; 100% in [2]; 90% in experiment [3]; 70% in the experiment on Avena fatua (AVEFA) [4]; 40% in the experiment with Lolium perenne (LOLPE) [5]; 100% in [6]. In addition, the pest or weed control at 250 g/ha in the experiment with Setaria faberi (SETFA) [7] stood at 70%; in experiment [8], 70%; in experiment [9] it was 50%; in the experiment on Avena fatua (AVEFA) [10], 60%; in the experiment with Lolium perenne (LOLPE) [11], 40%; in [12], 70%.
